Patent publication US7163689B2, “Intravenous valproate for acute treatment of migraine headache” (priority 1999, dated 2007)
“And” between values parts separate entries of the source, which are not always exact repeats. Identical values can stand only once. “Also recorded” adds a separate entry of the source.

What was measured:
Assay type in all cases: in vivo, human
[1] = test system: patients with moderate to severe migraine headaches of duration of 24 to 96 hrs; assay: Pilot study: IV valproate vs IM DHE with metoclopramide for abortive treatment of acute migraine headache (Example 1); conditions: for % Headache Relief: 5 patients per group; for Headache Severity / Nausea/vomiting / Phonophobia / Photophobia: individual patient; for Headache Severity: grade 0-3; for Nausea/vomiting / Phonophobia / Photophobia: presence
Source text: This Example describes the results of a pilot study using intravenous valproate for abortive treatment of acute migraine headache. • Methods. Patients with established diagnosis of migraine with and without aura were considered for randomization to intravenous (“IV”) valproate (“VPA”) or intramuscular (“IM”) dihydroergotamine (“DHE”) with metoclopramide, also referred to herein as […]®, for patients with moderate to severe migraine headaches of duration of 24 to 96 hrs. Patients received intravenous infusion of 500 mgs of valproate over 30 mins or 1 mg DHE with 10 mgs metoclopramide IM. Headache severity, presence of nausea, phonophobia and photophobia were rated at baseline, 1 hr, 2 hrs, and 4 hrs. Table I and II. There were 5 patients in each group. • Results. Of the 5 patients receiving valproate, 4 of the 5 had response of their headaches from moderate or severe to none or mild at 1 hr, 2 hrs, and 4 hrs. Of the 5 patients receiving DHE, 3 of the 5 patients had headache response to moderate or severe to mild or none at 1 hr, 2 hrs, and 4 hrs. Table III. […] In the DHE group, 2 of 5 had nausea at baseline, and 1 had nausea at 1 hr, 2 hrs, and 4 hrs. Table IVa. […] In the DHE group, 3 of 5 had relief of photophobia at 1 hr, 4 of 5 had relief at 2 hrs and 4 hrs. […] In the DHE group, 2 of 5 had relief of phonophobia at 1 hr, and 3 of 5 had relief of phonophobia at 2 hrs and 4 hrs. Table IVb. • Conclusions. Intravenous valproate is an alternative therapy for abortive treatment of moderate to severe prolonged acute migraine headache. Anti-convulsant mechanisms may be relevant to treatment of headache symptomatology.

[2] = test system: patients with prolonged moderate to severe migraine; assay: Further expanded study (N=40): Depacon vs DHE preceded by metoclopramide, prolonged moderate to severe migraine (Example 3); conditions: for Headache Severity (group value, four grade rating) / Number of Patients Who Reported Nausea / Number of Patients Who Reported Phonophobia / Number of Patients Who Reported Photophobia / Responder Rate / Symptom Free patients (no headache or associated symptomatology), % / Symptom Free patients (no headache or associated symptomatology), number: N = 20 per group
Source text: This Example describes a further expanded study and analysis of the effectiveness of intravenous VPA for the treatment of acute migraine headache of significant duration. Patient data from the study described in Examples 1 and 2 have been incorporated and further analyzed in addition to new patient data. • Design and Methods. Participants (N=40) were from age 14 to 74 and were established patients of the Western New England Headache Clinic. Patients called to report the pressure of prolonged moderate to severe migraine. They had no evidence of conditions other than migraine to cause headache and were medically stable. […] Patients received a neurological and general physical examination and filled out a four grade baseline headache rating from developed by Western New England Headache Clinic (see Table 2). The patients then received either 500 mg Depacon™ over 15–30 minutes administered in 100 ccs D5W, or 1 mg DHE intramuscularly preceded by 10 mg metoclopramide intramuscularly. Headache severity and associated symptomatology were rated 1, 2, and 4 hours. Results. A total of 40 patients were randomized, 20 in the Depacon™ group and 20 in the DHE group. Table VII summarizes the number of patients in each group by severity of headache (moderate or severe), demographic data and medication assignment.

[3] = test system: patients with moderate to severe migraine headaches of duration of 24 to 96 hrs; assay: Pilot study: IV valproate vs IM DHE with metoclopramide for abortive treatment of acute migraine headache (Example 1); conditions: individual patient, grade 0-3; 24-h; sodium
[4] = test system: patients with moderate to severe headaches of 24–72 hours duration; assay: Expanded study: IV VPA vs DHE with metoclopramide IM, acute migraine headache (Example 2); conditions: 24-h

CCCC(CCC)C(=O)[O-].[Na+] [Depacon, valproate sodium]
% experiencing Nausea ([1]; 0-h (baseline)): 80% | % experiencing Photophobia ([1]; 0-h (baseline)): 100% | % experiencing phonphobia ([1]; 0-h (baseline)): 80% | % experiencing Nausea ([1]; 1-h): 20% | % experiencing Photophobia ([1]; 1-h): 20% | % experiencing phonphobia ([1]; 1-h): 20% | % experiencing Nausea ([1]; 2-h): 20% | % experiencing Photophobia ([1]; 2-h): 20% | % experiencing phonphobia ([1]; 2-h): 20% | % experiencing Nausea ([1]; 4-h): 0% | % experiencing Photophobia ([1]; 4-h): 0% | % experiencing phonphobia ([1]; 4-h): 0% | % Headache Relief ([1]; 1-h): 60% | % Headache Relief ([1]; 2-h): 100% | % Headache Relief ([1]; 4-h): 80% | % Headache Relief ([1]; 24-h): 40% | % experiencing Nausea ([1]; 24-h): 40% | % experiencing Photophobia ([1]; 24-h): 40% | % experiencing phonphobia ([1]; 24-h): 40% | Headache Severity ([1]; 0-h (baseline), Depacon IV 500 mg or DHE 1 mg + Reglan 10 mg, sodium): 3 (3×) and 2 (2×) | Headache Severity ([1]; 1-h, sodium): 1 (2×) and 0 (2×) and 2 | Headache Severity ([1]; 2-h, sodium): 1 (4×) and 0 | Headache Severity ([1]; 4-h, sodium): 0 (3×) and 1 and 2 | Nausea/vomiting ([1]; 0-h (baseline), sodium): 0 | Phonophobia ([1]; 0-h (baseline), sodium): 0 | Nausea/vomiting ([1]; 1-h, sodium): 0 | Phonophobia ([1]; 1-h, sodium): 0 | Photophobia ([1]; 1-h, sodium): 0 | Nausea/vomiting ([1]; 2-h, sodium): 0 | Phonophobia ([1]; 2-h, sodium): 0 | Photophobia ([1]; 2-h, sodium): 0 | Nausea/vomiting ([1]; 4-h): 0 | Phonophobia ([1]; 4-h): 0 | Photophobia ([1]; 4-h): 0 | Nausea/vomiting ([1]; 24-h, sodium): 0 | Phonophobia ([1]; 24-h, sodium): 0 | Photophobia ([1]; 24-h, sodium): 0 | patients who had nausea ([1]; of 5 patients, 1 hr): 1 | patients who had relief of phonophobia ([1]; of 5 patients, 1 hr): 4 of 5 | patients who had relief of photophobia ([1]; of 5 patients, 1 hr): 4 of 5 | patients with response of headache from moderate or severe to none or mild ([1]; of 5 patients, 1 hr): 4 of the 5 | patients who had nausea ([1]; of 5 patients, 2 hrs): 1 | patients who had relief of phonophobia ([1]; of 5 patients, 2 hrs): 4 of 5 | patients who had relief of photophobia ([1]; of 5 patients, 2 hrs): 4 of 5 | patients with response of headache from moderate or severe to none or mild ([1]; of 5 patients, 2 hrs): 4 of the 5 | patients who had nausea ([1]; of 5 patients, 4 hrs): all had relief of nausea | patients who had relief of phonophobia ([1]; of 5 patients, 4 hrs): all had relief | patients who had relief of photophobia ([1]; of 5 patients, 4 hrs): all had relief | patients with response of headache from moderate or severe to none or mild ([1]; of 5 patients, 4 hrs): 4 of the 5 | patients who had nausea ([1]; of 5 patients, baseline): 4 of 5 | patients who had photophobia ([1]; of 5 patients, baseline): all had photophobia | adverse events ([2]; 20 patients receiving 500 mg Depacon given during 15 to 30 minutes infusion, sodium): remarkably free of adverse event; also recorded: no adverse events | % of Patients Who Reported Nausea ([2]; 1 hour): 53% | % of Patients Who Reported Phonophobia ([2]; 1 hour): 74% | % of Patients Who Reported Photophobia ([2]; 1 hour): 70% | % of Patients Who Reported Nausea ([2]; 2 hours): 53% | % of Patients Who Reported Phonophobia ([2]; 2 hours): 58% | % of Patients Who Reported Photophobia ([2]; 2 hours): 50% | % of Patients Who Reported Nausea ([2]; 4 hours): 47% | % of Patients Who Reported Phonophobia ([2]; 4 hours): 53% | % of Patients Who Reported Photophobia ([2]; 4 hours): 45% | % of Patients Who Reported Nausea ([2]; Baseline): 75% | % of Patients Who Reported Phonophobia ([2]; Baseline): 95% | % of Patients Who Reported Photophobia ([2]; Baseline): 100% | Headache Severity (group value, four grade rating) ([2]; 1 hour): 1.8 | Number of Patients Who Reported Nausea ([2]; 1 hour): 8 | Number of Patients Who Reported Phonophobia ([2]; 1 hour): 14 | Number of Patients Who Reported Photophobia ([2]; 1 hour): 14 | Responder Rate ([2]; 1 hour): 50% | Headache Severity (group value, four grade rating) ([2]; 2 hours): 1.5 | Number of Patients Who Reported Nausea ([2]; 2 hours): 8 | Number of Patients Who Reported Phonophobia ([2]; 2 hours): 11 | Number of Patients Who Reported Photophobia ([2]; 2 hours): 10 | Responder Rate ([2]; 2 hours): 60% | Headache Severity (group value, four grade rating) ([2]; 4 hours): 1.4 | Number of Patients Who Reported Nausea ([2]; 4 hours): 7 | Number of Patients Who Reported Phonophobia ([2]; 4 hours): 10 | Number of Patients Who Reported Photophobia ([2]; 4 hours): 9 | Responder Rate ([2]; 4 hours): 60% | Headache Severity (group value, four grade rating) ([2]; Baseline): 2.7 | Number of Patients Who Reported Nausea ([2]; Baseline): 15 | Number of Patients Who Reported Phonophobia ([2]; Baseline): 19 | Number of Patients Who Reported Photophobia ([2]; Baseline): 20 | Symptom Free patients (no headache or associated symptomatology), % ([2]; at 1 hour): 10% | Symptom Free patients (no headache or associated symptomatology), number ([2]; at 1 hour): 2 | Symptom Free patients (no headache or associated symptomatology), % ([2]; at 2 hours): 15% | Symptom Free patients (no headache or associated symptomatology), number ([2]; at 2 hours): 3 | Symptom Free patients (no headache or associated symptomatology), % ([2]; at 4 hours): 25% | Symptom Free patients (no headache or associated symptomatology), number ([2]; at 4 hours): 5 | response of associated symptomatology compared with the DHE group ([2]; baseline, 1, 2 and 4 hours, P>0.05): responded somewhat better, although not statistically significantly | Headache Severity [3]: 1 and 2 (2×) and 3 and 0 | % experiencing Photophobia [4]: 60%
